Reference: PMC8401699, “Synthesis, DFT Calculations, Antiproliferative, Bactericidal Activity and Molecular Docking of Novel Mixed-Ligand Salen/8-Hydroxyquinoline Metal Complexes” (Molecules, 2021)
Like-named read-outs stand apart in the source and are kept apart here.

Columns and labels:
[1] = test system: Hep-G2 cells; test: MTT cytotoxicity assay, Hep-G2; assay type: cell-based, human; details: read-out: IC50 Values, Hep-G2 Cell Line
Procedure: (§1) The cytotoxic activities of the synthesized ligands and metal complexes against the breast cancer cell line MDA-MB231, the hepatic cellular (Hep-G2), and normal cell line (HEK-293) were assessed by MTT assay. A cell suspension was diluted by complete medium to a concentration of 5 × 10^4 cell/mL. Using a micropipette, we pipetted 100 μL aliquots of the cell suspension into each well of 96-well plate (≈5000 cells/well). The 96-well plate was incubated at 37 °C for 24 h to allow cell attachment. After 24 h, cells were treated with 100 µL of growth medium containing […] of the newly synthesized compounds in triplicate. Cells were washed with phosphate-buffered saline (PBS), and fresh relevant medium containing 20 μL MTT in PBS (0.5 mg/mL) was added to the test wells. […] The MTT assay technique is based on the reduction of the tetrazolium salt MTT to insoluble purple formazan by metabolically active cells, making their activities quantifiable by spectrophotometry. […] Cell viability was determined by measuring the absorbance of each well at 570 nm (and at a reference wavelength of 630 nm) using an ELISA plate reader. […] IC50 values were calculated using Graph Pad Prism version 6.01, 2012 (GraphPad software, San Diego, CA, USA), by plotting the log concentration versus corresponding viability (%) to generate dose–response curves. […]

[2] = test system: HEK-293 cells; test: MTT cytotoxicity assay, normal cell line HEK-293; assay type: cell-based
Procedure: A cell suspension was diluted by complete medium to a concentration of 5 × 10^4 cell/mL. Using a micropipette, we pipetted 100 μL aliquots of the cell suspension into each well of 96-well plate (≈5000 cells/well). The 96-well plate was incubated at 37 °C for 24 h to allow cell attachment. After 24 h, cells were treated with 100 µL of growth medium containing […] of the newly synthesized compounds in triplicate. Cells were washed with phosphate-buffered saline (PBS), and fresh relevant medium containing 20 μL MTT in PBS (0.5 mg/mL) was added to the test wells. The plate was further incubated in a CO2 incubator at 37 °C for 4 h, and then MTT assay analysis was performed. The MTT assay technique is based on the reduction of the tetrazolium salt MTT to insoluble purple formazan by metabolically active cells, making their activities quantifiable by spectrophotometry. Accordingly, the formed formazan crystals were dissolved in 120 μL DMSO for each well. Cell viability was determined by measuring the absorbance of each well at 570 nm (and at a reference wavelength of 630 nm) using an ELISA plate reader.

[3] = test system: MDA-MB231 cells; test: MTT cytotoxicity assay, MDA-MB231; assay type: cell-based, human; details: read-out: IC50 Values, MDA-MB231 Cell Line
Procedure: as §1

melting point [°C]	SMILES	IC50 ([1]; Hep-G2 liver carcinoma cells) [µM]	IC50 ([2]; read-out: IC50 Values, HEK-293 Cell Lines) [µM]	IC50 ([3]; MDA-MB231 breast carcinoma cells) [µM]	IC50 ([1]; Homo sapiens, HepG2, Hep-G2 liver carcinoma cells) [µM]	IC50 ([2]; Homo sapiens, HEK293, read-out: IC50 Values, HEK-293 Cell Lines) [µM]	IC50 ([3]; Homo sapiens, MDA-MB-231, MDA-MB231 breast carcinoma cells) [µM]
	N.N.[Cl][Pt][Cl] [Cisplatin, reference compound]	1.55 ± 0.06	94.1 ± 0.05	1.87 ± 0.09			
127	Oc1ccccc1C=NCCN=Cc1ccccc1O [S, 2,2′-{1,2-ethanediylbis[nitrilo(E)methylylidene]}diphenol]				1.1 ± 0.1	93.06 ± 0.04	27.54 ± 0.08
